Patent US20010049372A1, “Antiviral nucleoside analogues” (BioChem Pharma Inc., priority 1998, published 2001)
Read-outs that look alike come from different tables or passages of the source.

How the values were obtained:
HepG2 cells = experiment: Mitochondria DNA toxicity assay; assay type: cell-based; settings: 28 days, up to 100 μM, the highest concentration tested (FIG. 1)
Method: Mitochondria DNA (mtDNA) toxicity of the compound A (−) was tested in HepG2 cells. The cells were cultured for 28 days under the compound treatment. Th cells were passaged once a week. However, the cell culture medium containing proper concentration of the compound was changed twice a week. Zalcitabine was used as a control. The toxicity was determined by measuring content ratio of mtDNA and nuclear DNA (28s rDNA) by a southern hybridization assay (de Muys et al., 1999). […]

[1] = Pharmacokinetic study in male and female rats (single dose iv or po); assay type: in vivo, rat; settings: for Cmax / bioavailability / Tmax: plasma; for Cmax: read-out: Cmax; for Tmax: read-out: Tmax (converted)
Method: Compound A(−), DAPD, and DXG were administrated as a single dose, either intravenously through the jugular vein at 10 mg/kg or orally at 20, 125, 500, 1000 or 2000 mg/kg. All rats were fasted for 12 hours prior to po dosing treatment. The vehicle used for both iv and po administrations was 0.1% carboxymethylcellulose and 0.1% Tween 80 in distilled water, acidified to pH 3.15 with 1N HCl. Blood samples were taken from rats at the times shown in the schedule below for all oral dosing. From a total of 10 rats for each administration, seven time points were taken for the intravenous through the jugular vein dosing (2, 5, 15, 30, 60, 120 and 240 min) and for the oral dosing (5-360 min) at 20 mg/kg, whereas two additional time points at 480 and 1440 min were taken for the oral doses of 125-2000 mg/kg. As a result, each time point was in quadruplicate, except for the 1440 minute time point when blood samples were taken through the jugular vein from all the rats prior to being euthanized.
Blood samples (1 ml) were collected from the rat tails into a vacutainer containing EDTA (3 ml) for both iv and po administrations. Plasma samples were prepared by centrifugation at 2000×g for 15 minutes at 4° C.
(§1) Plasma samples (diluted to 1 ml with water) were loaded onto the Abselut Nexus sorbent (#1210-3100) and drawn through under low vacuum (approximately 5′′ Hg). One milliliter of deionized water was added to the sorbent and drawn through under vacuum. The extraction column was dried for 1 minute using a high vacuum (>10′′ Hg). One milliliter of methanol was added to the Abselut Nexus column and the eluent was collected at 1-2 ml/min. The eluent was evaporated to dryness using a Speed Vac, and the samples were reconstituted in 120 μl H2O; 100 μl was used for injection.

[2] = Preliminary pharmacokinetic study in male adult rats; assay type: in vivo; settings: rat; for half-life / AUC / Cmax: male, plasma; for AUC: read-out: AUC; for Cmax: read-out: Cmax
Method: The bioavailability of the compounds were evaluated in male adult rats dosed intravenously through the tail vein (5 mg/kg) and orally (20 mg/kg). The plasma samples were collected at 2, 5, 15, 30, 60, 90, 120 and 240 minutes after intravenous dosing and 5, 15, 30, 60, 90, 120, 240 and 360 minutes after oral dosing.
Blood samples (1 ml) were collected from the rat tails into a vacutainer containing EDTA (3 ml) for both iv and po administrations. Plasma samples were prepared by centrifugation at 2000 ×g for 15 minutes at 4° C.
as §1, with “(# 1210-3100 )” for “(#1210-3100)”

## Nc1nc(NC2CC2)c2ncn([C@H]3CO[C@@H](CO)O3)c2n1 [Compound A (-), (−)-(2R,4R)-2-hydroxymethyl-4-(2′-amino-6′-cyclopropylamino-purine-9′-yl)-1,3-dioxolane]
HepG2 cells
  mtDNA toxicity (content ratio of mtDNA and nuclear DNA, southern hybridization): did not show significant mtDNA toxicity
[1]; female rat, iv 10 mg/kg
  AUG: 328 µg·min/mL
  T-half elimination: 36.9 min
  Cmax: 22900 ng/mL
[1]; female rat, po 20 mg/kg
  AUG: 602 µg·min/mL
  T-half elimination: 57.1 min
  bioavailability: 92%
  Cmax: 5500 ng/mL
  Tmax: 22.8 min
[1]; male rat, iv 10 mg/kg
  AUG: 304 µg·min/mL
  T-half elimination: 34.2 min
  Cmax: 19200 ng/mL
[1]; male rat, po 20 mg/kg
  AUG: 600 µg·min/mL
  T-half elimination: 72.5 min
  bioavailability: 99%
  Cmax: 4600 ng/mL
  Tmax: 23.4 min
[2]; iv 5 mg/kg
  half-life: 22.2 min
  AUC: 4740 ng·h/mL
  Cmax: 14300 ng/mL
[2]; oral 20 mg/kg
  half-life: 38.4 min
  AUC: 8640 ng·h/mL
  Cmax: 4200 ng/mL
  Oral BA (%): 45.56%
